This passage reports EC50 results from ChEMBL document CHEMBL1629620 (Antimicrob Agents Chemother, 2009).

Molecules are shown by their SMILES.

The assay concerns Vaccinia virus. The assay is described as follows: Antiviral activity against J2R gene deficient Vaccinia virus harboring VVTK::luc infected in HFF assessed as reduction of plaque formation after 3 days. The assay is classed as functional, organism-based. As to conditions: Orthopoxvirus vaccinia, 72 h.
What is called EC50 is the concentration needed to bring the measured effect to its halfway point. `O=c1[nH]c(=O)n([C@H]2C[C@H](O)[C@@H](CO)S2)cc1I`: the half-maximal effective concentration (EC50) came out at 0.3 µM.

For `Nc1ccn(C[C@@H](CO)OCP(=O)(O)O)c(=O)n1.O.O` [CIDOFOVIR], the EC50 was 9.4 µM.

On to `O=c1[nH]c(=O)n([C@H]2C[C@H](O)[C@@H](CO)O2)cc1I` [IDOXURIDINE], for which the EC50 was determined as 7.1 µM.
